# Measured values as given in PMC11472331 (Journal of Medicinal Chemistry, 2024).
# Like-named read-outs stand apart in the source and are kept apart here.
# How the values were obtained:
# HDAC1 = HDAC1 (Homo sapiens, UniProt Q13547); assay: HDAC isoform inhibition assay (Reaction Biology); details: read-out: IC50 HDAC1; 10-dose IC50 mode, threefold serial dilution starting at 10 μM
# LSD1 [1] = target: T1, LSD1 (Homo sapiens, UniProt O60341); details: read-out: IC50 (μM, LSD1 inhibition); 10-dose IC50 mode, singlet, threefold serial dilution starting at 100 μM
# HCT-116 = HCT-116 xenograft model; type: in vivo, Balb/c nude mice; details: 50 or 100 mg/kg ip qd, nude mice
# Experimental: (A) Tumor size was evaluated twice a week, and (B) body weight was recorded daily in the first week, followed by semiweekly measurements.
# Once the tumor sizes reached 150 mm^3, the mice were divided into four treatment groups, each comprising six mice. […] Throughout the experiment, tumor size and body weight were measured twice a week, with tumor volume (mm^3) calculated using the formula LW^2/2 (L is the tumor length, and W is the tumor width). Tumor growth inhibition (TGI) was calculated by dividing the tumor volumes from treatment groups by those of the control groups, expressed as a percentage.
# HDAC2 = HDAC2 (Homo sapiens, UniProt Q92769); assay: HDAC isoform inhibition assay (Reaction Biology); details: read-out: IC50 HDAC2; 10-dose IC50 mode, threefold serial dilution starting at 10 μM
# HDAC6 = target: T2, HDAC6 (Homo sapiens, UniProt Q9UBN7); assay: HDAC isoform inhibition assay (Reaction Biology)
# T2 sequence (Q9UBN7 1-1215): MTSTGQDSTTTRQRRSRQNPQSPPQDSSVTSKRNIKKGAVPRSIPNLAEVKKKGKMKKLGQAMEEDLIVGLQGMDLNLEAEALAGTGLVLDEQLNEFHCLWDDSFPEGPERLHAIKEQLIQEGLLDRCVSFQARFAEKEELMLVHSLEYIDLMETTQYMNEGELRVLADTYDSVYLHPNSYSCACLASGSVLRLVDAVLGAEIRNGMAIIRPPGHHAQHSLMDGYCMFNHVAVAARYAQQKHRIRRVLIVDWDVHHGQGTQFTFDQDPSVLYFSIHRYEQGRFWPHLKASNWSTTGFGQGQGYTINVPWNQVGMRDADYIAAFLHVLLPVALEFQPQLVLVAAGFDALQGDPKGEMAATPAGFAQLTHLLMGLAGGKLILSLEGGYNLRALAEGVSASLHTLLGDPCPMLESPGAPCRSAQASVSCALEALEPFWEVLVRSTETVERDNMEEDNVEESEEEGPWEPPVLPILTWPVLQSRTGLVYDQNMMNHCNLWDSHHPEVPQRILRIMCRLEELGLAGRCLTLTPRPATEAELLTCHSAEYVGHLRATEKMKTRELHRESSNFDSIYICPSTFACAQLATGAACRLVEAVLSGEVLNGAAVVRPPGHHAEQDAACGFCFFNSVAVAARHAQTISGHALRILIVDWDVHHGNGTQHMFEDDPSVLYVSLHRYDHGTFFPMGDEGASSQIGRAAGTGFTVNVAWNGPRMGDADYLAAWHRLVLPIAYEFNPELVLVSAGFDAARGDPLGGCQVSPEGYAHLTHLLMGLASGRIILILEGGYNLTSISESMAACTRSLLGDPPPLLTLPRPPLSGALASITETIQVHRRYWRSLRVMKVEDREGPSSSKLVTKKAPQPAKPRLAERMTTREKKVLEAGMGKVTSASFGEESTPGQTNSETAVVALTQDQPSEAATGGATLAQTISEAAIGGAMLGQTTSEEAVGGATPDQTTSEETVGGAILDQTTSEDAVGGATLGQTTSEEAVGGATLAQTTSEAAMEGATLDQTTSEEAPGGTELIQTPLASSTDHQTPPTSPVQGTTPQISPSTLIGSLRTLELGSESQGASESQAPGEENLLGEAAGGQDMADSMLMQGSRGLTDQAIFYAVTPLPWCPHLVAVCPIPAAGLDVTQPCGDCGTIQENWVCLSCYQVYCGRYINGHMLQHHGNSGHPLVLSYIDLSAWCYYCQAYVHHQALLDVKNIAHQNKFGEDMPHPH
# LSD1 [2] = target: T1, LSD1; assay: KDM1/LSD1 activity quantification/colorimetric assay; type: biochemical; details: 1 and 10 μM; compared with Corgline, selegiline, tranylcypromine, pargyline
# Experimental: LSD1 inhibitory assay was also performed using the KDM1/LSD1 Activity Quantification/Colorimetric Assay Kit, as described earlier.[38]
# in vivo = details: male, Sprague-Dawley, rat, plasma, po, 20 mg/kg
# HDAC8 = target: T3, HDAC8 (Homo sapiens, UniProt Q9BY41); assay: HDAC isoform inhibition assay (Reaction Biology); details: read-out: IC50 HDAC8; 10-dose IC50 mode, threefold serial dilution starting at 10 μM
# T3 sequence (Q9BY41 1-377): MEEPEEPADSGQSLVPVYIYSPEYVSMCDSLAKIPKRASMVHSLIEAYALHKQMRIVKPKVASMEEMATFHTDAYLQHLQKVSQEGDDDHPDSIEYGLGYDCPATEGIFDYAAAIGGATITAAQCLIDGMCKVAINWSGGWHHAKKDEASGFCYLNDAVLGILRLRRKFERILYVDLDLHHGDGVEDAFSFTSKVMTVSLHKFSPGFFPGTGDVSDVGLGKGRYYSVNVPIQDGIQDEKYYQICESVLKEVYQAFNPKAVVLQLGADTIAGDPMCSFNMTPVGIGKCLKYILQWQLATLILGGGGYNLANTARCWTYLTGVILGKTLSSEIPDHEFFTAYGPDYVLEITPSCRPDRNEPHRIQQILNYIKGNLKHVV
# [3] = read-out: IC50 HDAC6, 10-dose IC50 mode, threefold serial dilution starting at 10 μM
# Sequence of HDAC2 (Q92769 whole entry, canonical isoform): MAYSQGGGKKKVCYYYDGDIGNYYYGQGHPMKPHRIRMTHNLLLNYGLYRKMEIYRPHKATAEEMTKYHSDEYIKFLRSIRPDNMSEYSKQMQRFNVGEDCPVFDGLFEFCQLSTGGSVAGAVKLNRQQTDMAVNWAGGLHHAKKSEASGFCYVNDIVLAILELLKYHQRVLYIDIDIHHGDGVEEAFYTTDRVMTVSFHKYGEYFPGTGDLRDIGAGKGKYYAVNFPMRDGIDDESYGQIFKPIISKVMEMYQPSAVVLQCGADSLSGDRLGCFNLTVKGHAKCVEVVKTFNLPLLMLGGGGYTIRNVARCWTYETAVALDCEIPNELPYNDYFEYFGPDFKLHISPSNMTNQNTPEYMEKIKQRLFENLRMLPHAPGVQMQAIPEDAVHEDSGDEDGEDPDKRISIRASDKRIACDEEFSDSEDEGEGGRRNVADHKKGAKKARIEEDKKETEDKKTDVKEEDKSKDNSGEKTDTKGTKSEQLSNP
# Sequence of HDAC1 (Q13547 whole entry, canonical isoform): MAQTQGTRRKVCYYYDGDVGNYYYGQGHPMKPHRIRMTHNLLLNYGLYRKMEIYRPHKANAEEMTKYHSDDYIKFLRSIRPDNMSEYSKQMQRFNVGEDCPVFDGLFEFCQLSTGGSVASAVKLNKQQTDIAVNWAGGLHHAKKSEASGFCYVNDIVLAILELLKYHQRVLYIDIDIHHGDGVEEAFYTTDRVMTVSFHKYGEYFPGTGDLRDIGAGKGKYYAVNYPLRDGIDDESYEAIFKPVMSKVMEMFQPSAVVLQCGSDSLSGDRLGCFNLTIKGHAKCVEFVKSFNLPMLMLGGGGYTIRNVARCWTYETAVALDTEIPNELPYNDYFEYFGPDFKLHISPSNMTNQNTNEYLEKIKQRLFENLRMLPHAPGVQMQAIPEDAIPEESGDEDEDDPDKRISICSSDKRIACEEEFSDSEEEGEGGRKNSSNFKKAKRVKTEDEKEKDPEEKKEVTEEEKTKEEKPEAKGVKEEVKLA
smiles,measurement,setting,value
"O=C(NO)c1ccc(CN[C@@H]2C[C@H]2c2ccccc2)cc1 [Compound 1, N-Hydroxy-4-((((1R,2S)-2-phenylcyclopropyl)amino)methyl)benzamide]",IC50,HDAC1,8720 nM
same,IC50,LSD1 [1],28 µM
"O=C(/C=C/c1cccc(S(=O)(=O)N[C@@H]2C[C@H]2c2ccccc2)c1)NO [Compound 2, (E)-N-Hydroxy-3-(3-(N-((1R,2S)-2-phenylcyclopropyl)sulfamoyl)phenyl)acrylamide]",toxicity based on body weight measurements,HCT-116,did not cause evident toxicity in animals
same,IC50,HDAC2,373 nM
same,IC50,HDAC6,11 nM
same,IC50,HDAC6; [3],11.8 nM
same,IC50,HDAC1,125 nM
same,IC50,LSD1 [1],0.571 µM
same,inhibition of LSD1 activity versus standard LSD1 inhibitors,LSD1 [2],more effective in inhibiting the activity of LSD1 than the standard LSD1 inhibitor
same,Tmax,in vivo,1.1 ± 0.9 h
"O=C(/C=C/c1ccc(S(=O)(=O)N[C@@H]2C[C@H]2c2ccccc2)cc1)NO [Compound 3, (E)-N-Hydroxy-3-(4-(N-((1R,2S)-2-phenylcyclopropyl)sulfamoyl)phenyl)acrylamide]",IC50,HDAC2,343 nM
same,IC50,HDAC8,753 nM
same,IC50,HDAC6,9 nM
same,IC50,HDAC6; [3],9.66 nM
same,IC50,HDAC1,116 nM
same,IC50,LSD1 [1],0.899 µM
"O=C(CCCCCC(=O)N[C@@H]1C[C@H]1c1ccccc1)NO [Compound 4, N1-Hydroxy-N7-((1R,2S)-2-phenylcyclopropyl)heptanediamide]",IC50,LSD1 [1],38.3 µM
"O=C(CCCCCCC(=O)N[C@@H]1C[C@H]1c1ccccc1)NO [Compound 5, N1-Hydroxy-N8-((1R,2S)-2-phenylcyclopropyl)octanediamide]",IC50,LSD1 [1],14.6 µM
"O=C(CCCCCCCCC(=O)N[C@@H]1C[C@H]1c1ccccc1)NO [Compound 7, N1-Hydroxy-N10-((1R,2S)-2-phenylcyclopropyl)decanediamide]",IC50,LSD1 [1],7.68 µM
O=C(CCCCCCC(=O)Nc1ccc(CN[C@@H]2C[C@H]2c2ccccc2)cc1)NO [Compound 8],IC50,HDAC6; [3],3730 nM
same,IC50,LSD1 [1],1.61 µM
"O=C(NO)c1ccc(CN2CCC(CN[C@@H]3C[C@H]3c3ccccc3)CC2)cc1 [Compound 9, N-Hydroxy-4-((4-((((1R,2S)-2-phenylcyclopropyl)amino)methyl)piperidin-1-yl)methyl)benzamide]",IC50,HDAC8,1260 nM
same,IC50,HDAC1,12900 nM
"O=C(NO)c1ccc(CN2CCC(S(=O)(=O)N[C@@H]3C[C@H]3c3ccccc3)CC2)cc1 [Compound 10, N-Hydroxy-4-((4-(N-((1R,2S)-2-phenylcyclopropyl)sulfamoyl)piperidin-1-yl)methyl)benzamide]",IC50,HDAC2,8300 nM
same,IC50,HDAC8,407 nM
same,IC50,"HDAC6; read-out: HDAC6 IC50 as given in the text, rounded values of the running text",9 nM
same,IC50,HDAC6; [3],9.32 nM
same,IC50,HDAC1,4120 nM
same,IC50,LSD1 [1],2.4 µM
